Series [1] has as its target T1, ABCC2/MRP2 (Homo sapiens, UniProt Q92887).
T1 construct: made in house; host or cells: Sf9 insect cells (baculovirus)
The series is described as follows: MRP2 vesicular transport: ATP-dependent CDCF uptake into inverted Sf9 membrane vesicles. Format: biochemical. The note with it: CDCF 5 µM, 37 °C, 10 min; for ABCC2/MRP2 Type of effect: Sf9 vesicles.

Series [2] concerns the target T2, OATP1B1 (Homo sapiens, UniProt Q9Y6L6).
T2 construct: expressed in transfected cells; host or cells: A431 cells (ATCC)
T2 sequence (Q9Y6L6 1-691): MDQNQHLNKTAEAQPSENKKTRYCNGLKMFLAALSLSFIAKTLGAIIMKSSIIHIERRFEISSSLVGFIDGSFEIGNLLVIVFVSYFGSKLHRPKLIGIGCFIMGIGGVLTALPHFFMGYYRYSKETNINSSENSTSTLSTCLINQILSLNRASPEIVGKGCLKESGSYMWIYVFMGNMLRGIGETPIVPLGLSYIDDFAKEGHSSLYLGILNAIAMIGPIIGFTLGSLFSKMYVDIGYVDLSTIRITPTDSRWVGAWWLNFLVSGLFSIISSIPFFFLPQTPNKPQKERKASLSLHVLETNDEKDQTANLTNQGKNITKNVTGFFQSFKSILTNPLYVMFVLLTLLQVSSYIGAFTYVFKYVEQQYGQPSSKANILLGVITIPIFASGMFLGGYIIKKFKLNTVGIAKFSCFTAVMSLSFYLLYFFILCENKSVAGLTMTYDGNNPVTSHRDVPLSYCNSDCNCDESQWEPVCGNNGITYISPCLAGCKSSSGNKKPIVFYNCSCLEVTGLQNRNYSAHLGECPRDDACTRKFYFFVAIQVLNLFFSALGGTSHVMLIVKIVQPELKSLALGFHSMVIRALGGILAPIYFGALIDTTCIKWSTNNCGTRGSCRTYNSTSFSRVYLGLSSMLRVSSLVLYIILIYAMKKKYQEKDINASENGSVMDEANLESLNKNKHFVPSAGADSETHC
Description: OATP1B1-dependent pyranine uptake in overexpressing A431 cells. Conditions: for OATP1B1 Type of effect: A431 cells. Format: cell-based.

In series [3] the target is T3, ABCC3/MRP3 (Homo sapiens, UniProt O15438).
T3 construct: purchased Solvo Biotechnology (Budapest, Hungary); host or cells: HEK-293 cells
T3 sequence (O15438 whole entry): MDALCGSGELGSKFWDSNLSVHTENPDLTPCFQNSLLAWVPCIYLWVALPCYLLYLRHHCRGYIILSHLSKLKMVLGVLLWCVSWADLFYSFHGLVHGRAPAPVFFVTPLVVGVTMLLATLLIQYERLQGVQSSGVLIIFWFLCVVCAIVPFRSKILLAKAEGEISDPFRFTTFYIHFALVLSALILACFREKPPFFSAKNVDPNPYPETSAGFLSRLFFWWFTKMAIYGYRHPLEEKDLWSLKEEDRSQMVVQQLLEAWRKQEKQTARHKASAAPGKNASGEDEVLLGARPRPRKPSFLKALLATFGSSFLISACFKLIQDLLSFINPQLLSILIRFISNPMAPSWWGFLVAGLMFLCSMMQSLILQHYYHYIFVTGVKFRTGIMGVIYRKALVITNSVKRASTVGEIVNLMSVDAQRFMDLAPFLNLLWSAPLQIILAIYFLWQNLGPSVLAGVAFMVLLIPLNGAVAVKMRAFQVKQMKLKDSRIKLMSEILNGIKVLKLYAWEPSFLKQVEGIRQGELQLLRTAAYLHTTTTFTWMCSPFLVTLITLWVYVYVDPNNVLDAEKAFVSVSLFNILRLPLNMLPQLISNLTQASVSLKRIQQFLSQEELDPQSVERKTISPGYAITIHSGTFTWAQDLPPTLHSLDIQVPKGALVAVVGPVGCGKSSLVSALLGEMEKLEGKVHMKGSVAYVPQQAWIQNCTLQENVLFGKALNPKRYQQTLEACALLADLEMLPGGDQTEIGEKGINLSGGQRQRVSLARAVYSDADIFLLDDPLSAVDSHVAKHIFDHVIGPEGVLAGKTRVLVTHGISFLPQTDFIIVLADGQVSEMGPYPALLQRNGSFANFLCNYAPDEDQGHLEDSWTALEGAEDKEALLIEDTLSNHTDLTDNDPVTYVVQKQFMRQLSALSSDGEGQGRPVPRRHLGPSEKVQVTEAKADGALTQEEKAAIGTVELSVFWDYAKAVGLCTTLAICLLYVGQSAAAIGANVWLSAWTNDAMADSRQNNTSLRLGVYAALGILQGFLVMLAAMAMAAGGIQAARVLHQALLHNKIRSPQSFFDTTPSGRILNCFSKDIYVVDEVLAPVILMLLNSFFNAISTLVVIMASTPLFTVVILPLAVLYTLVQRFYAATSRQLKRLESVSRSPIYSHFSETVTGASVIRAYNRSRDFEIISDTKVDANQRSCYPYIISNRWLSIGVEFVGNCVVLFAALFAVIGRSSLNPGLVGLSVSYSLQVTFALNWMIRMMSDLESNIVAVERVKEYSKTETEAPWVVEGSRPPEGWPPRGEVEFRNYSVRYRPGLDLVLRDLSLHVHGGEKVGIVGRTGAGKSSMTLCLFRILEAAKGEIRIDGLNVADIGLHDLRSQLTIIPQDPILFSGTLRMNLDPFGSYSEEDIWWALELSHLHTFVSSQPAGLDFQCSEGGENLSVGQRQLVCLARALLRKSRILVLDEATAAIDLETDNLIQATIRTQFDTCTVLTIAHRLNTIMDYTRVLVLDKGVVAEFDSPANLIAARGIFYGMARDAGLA
Description: MRP3 vesicular transport: ATP- and benzbromarone-sensitive CDCF uptake into inverted HEK-293 membrane vesicles. It is filed as biochemical. The note with it: for ABCC3/MRP3 Type of effect: HEK-293 vesicles; for concentration at which MRP3 transport is inhibited: CDCF uptake.

Series [4] deals with T4, ABCB11/BSEP (Homo sapiens, UniProt O95342).
T4 construct: purchased Solvo Biotechnology (Budapest, Hungary); host or cells: HEK-293 cells
T4 sequence (O95342 whole entry): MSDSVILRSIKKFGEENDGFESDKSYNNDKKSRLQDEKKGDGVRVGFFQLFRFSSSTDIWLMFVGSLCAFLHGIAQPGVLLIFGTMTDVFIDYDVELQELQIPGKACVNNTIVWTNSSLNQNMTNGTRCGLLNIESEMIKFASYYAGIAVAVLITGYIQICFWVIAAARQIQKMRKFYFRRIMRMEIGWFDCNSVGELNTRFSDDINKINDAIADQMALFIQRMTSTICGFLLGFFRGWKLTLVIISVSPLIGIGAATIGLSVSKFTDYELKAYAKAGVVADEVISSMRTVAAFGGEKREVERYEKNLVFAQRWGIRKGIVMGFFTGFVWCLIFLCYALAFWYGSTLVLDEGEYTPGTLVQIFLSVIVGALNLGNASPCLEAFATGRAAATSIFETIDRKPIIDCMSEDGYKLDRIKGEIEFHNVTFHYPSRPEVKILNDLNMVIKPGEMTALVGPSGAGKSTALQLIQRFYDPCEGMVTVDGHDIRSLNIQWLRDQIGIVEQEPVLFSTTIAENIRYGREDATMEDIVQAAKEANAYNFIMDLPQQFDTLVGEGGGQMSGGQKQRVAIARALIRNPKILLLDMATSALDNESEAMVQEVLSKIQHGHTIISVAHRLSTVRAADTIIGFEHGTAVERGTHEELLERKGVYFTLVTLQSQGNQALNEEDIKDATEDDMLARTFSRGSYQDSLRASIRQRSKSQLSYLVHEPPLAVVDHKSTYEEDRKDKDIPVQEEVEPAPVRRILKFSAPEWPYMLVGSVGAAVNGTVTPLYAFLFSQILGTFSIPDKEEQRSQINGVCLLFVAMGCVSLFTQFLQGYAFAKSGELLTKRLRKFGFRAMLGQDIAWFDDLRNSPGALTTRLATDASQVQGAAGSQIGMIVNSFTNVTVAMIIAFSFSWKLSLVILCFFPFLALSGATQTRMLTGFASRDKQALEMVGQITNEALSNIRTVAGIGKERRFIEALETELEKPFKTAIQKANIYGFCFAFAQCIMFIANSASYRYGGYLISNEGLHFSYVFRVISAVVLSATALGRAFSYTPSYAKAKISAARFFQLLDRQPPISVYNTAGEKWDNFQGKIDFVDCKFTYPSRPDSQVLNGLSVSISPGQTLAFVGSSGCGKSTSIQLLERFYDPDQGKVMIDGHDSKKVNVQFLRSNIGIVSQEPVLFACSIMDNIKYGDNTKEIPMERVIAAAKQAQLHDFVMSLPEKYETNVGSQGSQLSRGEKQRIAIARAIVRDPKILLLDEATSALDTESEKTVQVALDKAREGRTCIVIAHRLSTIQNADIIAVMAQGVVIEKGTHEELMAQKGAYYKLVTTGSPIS
Description: BSEP vesicular transport: ATP- and glyburide-sensitive taurocholate uptake into inverted HEK-293 membrane vesicles. It is filed as biochemical. The note with it: for ABCB11/BSEP Type of effect: HEK-293 vesicles; for concentration at which BSEP inhibition is effective: taurocholate transport.

For series [5], the system named is ABCB1/Pgp. Details: method as in Telbisz et al., 2021. Conditions: vesicular transporter assay, measured previously; ref Telbisz et al., 2021; cited from earlier work.
The target in series [6] is T5, MATE1/SLC47A1 (Homo sapiens, UniProt Q96FL8).
T5 construct: expressed in transfected cells; host or cells: MDCKII cells, lentiviral transduction
T5 sequence (Q96FL8 1-570): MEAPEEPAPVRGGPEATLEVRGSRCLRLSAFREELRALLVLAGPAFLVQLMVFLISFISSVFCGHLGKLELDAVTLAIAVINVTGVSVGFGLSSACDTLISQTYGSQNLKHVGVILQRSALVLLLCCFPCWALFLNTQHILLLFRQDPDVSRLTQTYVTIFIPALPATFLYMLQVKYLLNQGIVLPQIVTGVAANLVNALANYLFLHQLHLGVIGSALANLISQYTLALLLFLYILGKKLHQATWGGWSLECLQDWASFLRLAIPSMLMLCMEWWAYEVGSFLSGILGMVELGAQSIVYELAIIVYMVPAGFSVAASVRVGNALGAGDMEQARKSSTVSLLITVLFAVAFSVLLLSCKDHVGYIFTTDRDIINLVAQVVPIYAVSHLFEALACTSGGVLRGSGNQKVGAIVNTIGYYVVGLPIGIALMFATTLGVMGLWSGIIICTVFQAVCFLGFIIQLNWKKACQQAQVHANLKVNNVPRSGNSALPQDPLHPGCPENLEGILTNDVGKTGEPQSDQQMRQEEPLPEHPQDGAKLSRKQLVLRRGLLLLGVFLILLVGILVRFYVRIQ
Description: MATE1-dependent metformin uptake in MATE1-overexpressing MDCKII cells. It is filed as cell-based. The note with it: for MATE1/SLC47A1 Type of effect: metformin 10 µM, 10 min, 37 °C, MDCKII cells.

Series [7] concerns the target T6, NTCP/SLC10A1 (Homo sapiens, UniProt Q14973).
T6 construct: expressed in transfected cells; host or cells: HEK-293 cells, lentiviral transduction
T6 sequence (Q14973 1-349): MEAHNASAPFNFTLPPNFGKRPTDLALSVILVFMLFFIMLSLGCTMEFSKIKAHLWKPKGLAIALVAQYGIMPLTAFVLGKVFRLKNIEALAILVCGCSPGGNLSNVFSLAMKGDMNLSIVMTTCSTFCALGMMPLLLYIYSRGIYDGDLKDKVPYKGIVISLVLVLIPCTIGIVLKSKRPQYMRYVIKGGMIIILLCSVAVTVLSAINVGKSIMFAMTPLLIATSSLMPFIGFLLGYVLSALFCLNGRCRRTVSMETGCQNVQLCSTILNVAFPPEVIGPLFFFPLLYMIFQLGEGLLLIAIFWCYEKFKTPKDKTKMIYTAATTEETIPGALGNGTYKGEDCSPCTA
The series is described as follows: NTCP-dependent taurocholate uptake in NTCP-overexpressing HEK-293 cells. It is filed as cell-based. The note with it: for NTCP/SLC10A1 Type of effect: taurocholate 2 µM, 2 min, 37 °C, HEK-293 cells.

Series [8] addresses T7, OCT1/SLC22A1 (Homo sapiens, UniProt O15245).
T7 construct: expressed in transfected cells; host or cells: HEK-293 cells, lentiviral transduction
T7 sequence (O15245 1-554): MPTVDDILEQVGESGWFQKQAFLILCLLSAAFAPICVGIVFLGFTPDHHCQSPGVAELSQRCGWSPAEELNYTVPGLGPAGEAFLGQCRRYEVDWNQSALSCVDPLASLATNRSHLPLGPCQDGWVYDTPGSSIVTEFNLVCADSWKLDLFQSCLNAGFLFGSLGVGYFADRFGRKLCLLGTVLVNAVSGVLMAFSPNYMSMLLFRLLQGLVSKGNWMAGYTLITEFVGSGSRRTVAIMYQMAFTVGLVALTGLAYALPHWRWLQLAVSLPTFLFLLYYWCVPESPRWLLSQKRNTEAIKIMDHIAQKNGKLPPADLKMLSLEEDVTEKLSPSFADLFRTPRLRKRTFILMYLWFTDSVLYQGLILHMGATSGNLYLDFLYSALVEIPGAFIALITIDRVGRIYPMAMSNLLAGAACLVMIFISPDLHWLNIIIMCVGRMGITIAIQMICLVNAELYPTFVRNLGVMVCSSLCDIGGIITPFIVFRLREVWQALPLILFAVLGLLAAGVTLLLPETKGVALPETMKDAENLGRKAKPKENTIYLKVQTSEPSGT
The series is described as follows: OCT1-dependent metformin uptake in OCT1-overexpressing HEK-293 cells. Format: cell-based. Conditions: for OCT1/SLC22A1 Type of effect: metformin 10 µM, 5 min, 37 °C, HEK-293 cells.

[9] abbreviates: taurocholate 2 µM, 37 °C, 10 min.

We go through four molecules from PMC8426393, “Interactions of anti-COVID-19 drug candidates with hepatic transporters may cause liver toxicity and affect pharmacokinetics” (Scientific Reports, 2021).

“Also recorded” adds a separate entry of the source. Where two headings read alike, the source gives them in different places.

T1 sequence (Q92887 whole entry): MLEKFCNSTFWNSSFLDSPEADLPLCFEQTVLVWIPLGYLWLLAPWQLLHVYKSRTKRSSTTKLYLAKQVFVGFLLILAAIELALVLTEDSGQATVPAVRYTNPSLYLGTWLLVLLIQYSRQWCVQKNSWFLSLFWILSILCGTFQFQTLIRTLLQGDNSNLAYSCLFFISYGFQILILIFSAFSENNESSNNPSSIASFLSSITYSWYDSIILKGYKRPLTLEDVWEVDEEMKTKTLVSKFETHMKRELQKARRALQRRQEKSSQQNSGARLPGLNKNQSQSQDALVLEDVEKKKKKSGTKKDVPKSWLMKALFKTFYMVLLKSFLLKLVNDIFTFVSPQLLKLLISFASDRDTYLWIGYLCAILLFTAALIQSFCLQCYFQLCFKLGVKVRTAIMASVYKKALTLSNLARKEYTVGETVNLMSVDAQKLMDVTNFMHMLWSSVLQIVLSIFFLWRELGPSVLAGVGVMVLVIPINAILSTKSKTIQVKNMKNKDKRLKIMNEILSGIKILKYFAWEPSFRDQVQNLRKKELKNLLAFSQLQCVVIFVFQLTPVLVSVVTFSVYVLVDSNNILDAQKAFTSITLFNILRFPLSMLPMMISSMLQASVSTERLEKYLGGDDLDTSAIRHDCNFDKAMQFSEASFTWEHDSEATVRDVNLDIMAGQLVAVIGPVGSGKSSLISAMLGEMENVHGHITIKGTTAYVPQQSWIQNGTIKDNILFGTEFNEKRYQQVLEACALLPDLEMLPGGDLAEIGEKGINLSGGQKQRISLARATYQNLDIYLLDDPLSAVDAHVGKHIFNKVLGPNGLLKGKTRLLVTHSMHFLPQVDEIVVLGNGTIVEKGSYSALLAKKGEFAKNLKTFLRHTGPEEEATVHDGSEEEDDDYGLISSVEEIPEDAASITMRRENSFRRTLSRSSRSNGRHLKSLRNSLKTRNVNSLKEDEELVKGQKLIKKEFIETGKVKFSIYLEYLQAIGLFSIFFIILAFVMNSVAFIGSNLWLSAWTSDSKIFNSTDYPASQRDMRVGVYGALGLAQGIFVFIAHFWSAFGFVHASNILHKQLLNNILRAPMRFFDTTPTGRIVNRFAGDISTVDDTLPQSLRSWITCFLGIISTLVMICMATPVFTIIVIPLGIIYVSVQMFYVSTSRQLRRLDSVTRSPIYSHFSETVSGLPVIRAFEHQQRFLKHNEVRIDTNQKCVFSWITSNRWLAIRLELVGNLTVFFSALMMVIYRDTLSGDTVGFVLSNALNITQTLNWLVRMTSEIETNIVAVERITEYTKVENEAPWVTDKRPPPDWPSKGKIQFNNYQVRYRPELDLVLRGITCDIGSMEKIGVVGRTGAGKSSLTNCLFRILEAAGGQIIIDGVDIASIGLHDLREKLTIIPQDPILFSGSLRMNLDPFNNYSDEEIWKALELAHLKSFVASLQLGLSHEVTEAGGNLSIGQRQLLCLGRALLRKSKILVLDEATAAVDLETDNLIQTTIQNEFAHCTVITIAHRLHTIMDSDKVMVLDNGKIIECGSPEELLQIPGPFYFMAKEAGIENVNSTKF

In general, IC50 refers to the concentration at which inhibition is half-maximal. The inhibition is how much of the control response was suppressed. For `CCC(CC)COC(=O)[C@H](C)N[P@](=O)(OC[C@H]1O[C@@](C#N)(c2ccc3c(N)ncnn23)[C@H](O)[C@@H]1O)Oc1ccccc1` [REM, remdesivir], the “ABCC2/MRP2 Type of effect” value in series [1] was “did not inhibit but rather increased the probe substrate transport at high concentrations; also recorded: Increase”. Also, the 50% inhibitory concentration (IC50) in series [2] was 2900 nM; in series [4] it was ≥ 40 µM; in series [5], > 20000 nM; in series [6], 2.3 µM; in series [7] it was ≥ 50 µM; in series [8], 6.1 µM. Moreover, the “OATP1B1 Type of effect” value in series [2] (pyranine 10 µM, 15 min, 37 °C) is given as “inh”. The “ABCC3/MRP3 Type of effect” value in series [3] (CDCF 5 µM, 37 °C, 10 min) is “did not influence MRP3 transport at all; also recorded: did not inhibit; also recorded: No effect”. In series [4] (human, at 50 µM), this molecule registered an inhibition at 10 min, 50 µM of 40 to 50%. In addition, the “ABCB11/BSEP Type of effect” value in series [4] (setting [9]) is given as “inh”. The “concentration at which BSEP inhibition is effective” value in series [4] was “above 20 µM”. Also, the “ABCB1/Pgp Type of effect” value in series [5] was “inh”. Also, the “MATE1/SLC47A1 Type of effect” value in series [6] is “strong inhibitory action and inh”. Besides, the inhibition at 50 µM in series [7] (HEK293, read-out: NTCP inhibition) lay in the range of 40 to 50%. Also, the “NTCP/SLC10A1 Type of effect” value in series [7] is given as “inh”. Moreover, in series [8], the “OCT1/SLC22A1 Type of effect” value was “strong inhibitory effect and inh”. The “concentration of strong inhibitory effect on OCT1” value in series [8] (metformin uptake) is recorded as “below 10 µM”.
As to `Cc1cccc(C)c1OCC(=O)N[C@@H](Cc1ccccc1)[C@@H](O)C[C@H](Cc1ccccc1)NC(=O)[C@H](C(C)C)N1CCCNC1=O` [LOP, lopinavir], in series [1], the “ABCC2/MRP2 Type of effect” value was “no such effect”. The IC50 is 1100 nM in series [2]; > 40 µM in series [3]; 7.8 µM in series [4]; 600 nM in series [5]; 7.7 µM in series [6]; ≥ 50 µM in series [7]. Moreover, in series [8], the half-inhibitory concentration (IC50) was > 50 µM. The “ABCC3/MRP3 Type of effect” value in series [3] (CDCF 5 µM, 37 °C, 10 min) was “inh”. For the same molecule, the “concentration at which MRP3 transport is inhibited” value in series [3] was > 20 µM. Besides, the “ABCB11/BSEP Type of effect” value in series [4] (setting [9]) was “strongly inhibited TC transport at low concentrations and inh”. In series [5], the “ABCB1/Pgp Type of effect” value is “inh”. Besides, the “MATE1/SLC47A1 Type of effect” value in series [6] was “strong inhibitory action and inh”. Also, the “NTCP/SLC10A1 Type of effect” value in series [7] is “inh”. For the same molecule, in series [8], the “OCT1/SLC22A1 Type of effect” value is “less inhibitory and inh”.
In the case of `CCC(C)C1OC2(CCC1C)CC1CC(CC=C(C)C(OC3CC(OC)C(OC4CC(OC)C(O)C(C)O4)C(C)O3)C(C)C=CC=C3COC4C(O)C(C)=CC(C(=O)O1)C34O)O2` (stereo not shown) [IVE, ivermectin], the “ABCC2/MRP2 Type of effect” value in series [1] was “strongly decreased the accumulation of the probe substrate and inh”. Also, the 50% inhibitory concentration (IC50) was ≥ 20 µM in series [1] (approximate IC50); ≥ 20000 nM in series [2] (approximate IC50, pyranine 10 µM, 15 min, 37 °C); > 50 µM in series [3] (approximate IC50, CDCF 5 µM, 37 °C, 10 min); ≥ 30 µM in series [4] (approximate IC50, taurocholate 2 µM, 37 °C, 10 min); 300 nM in series [5]. Besides, the “OATP1B1 Type of effect” value in series [2] (pyranine 10 µM, 15 min, 37 °C) was “inh”. Moreover, in series [3] (CDCF 5 µM, 37 °C, 10 min), the “ABCC3/MRP3 Type of effect” value was “inh”. Besides, the “concentration at which MRP3 transport is inhibited” value in series [3] is listed as > 20 µM. Besides, the “ABCB11/BSEP Type of effect” value in series [4] (setting [9]) was “inh”. Moreover, in series [4], the “concentration at which BSEP inhibition is effective” value is “above 20 µM”. In addition, the “ABCB1/Pgp Type of effect” value in series [5] was “inh”. In addition, the “MATE1/SLC47A1 Type of effect” value in series [6] is on record as “practically no inhibition; also recorded: No effect”. Further, the “NTCP/SLC10A1 Type of effect” value in series [7] is “only minor inhibition”. The “OCT1/SLC22A1 Type of effect” value in series [8] is on record as “no significant inhibitory action; also recorded: no effect”.
Consider `NC(=O)c1nc(F)c[nH]c1=O` [FAV, favipiravir], for which the “ABCC2/MRP2 Type of effect” value in series [1] is recorded as “no such effect”. Besides, in series [2] (pyranine 10 µM, 15 min, 37 °C), the “OATP1B1 Type of effect” value is listed as “did not modify OATP functionality”. Also, in series [3] (CDCF 5 µM, 37 °C, 10 min), the “ABCC3/MRP3 Type of effect” value was “did not influence MRP3 transport at all”. Besides, the “ABCB11/BSEP Type of effect” value in series [4] (setting [9]) is recorded as “did not modify BSEP-mediated TC transport”. Further, in series [6], the “MATE1/SLC47A1 Type of effect” value is reported as “practically no inhibition”. Also, the “NTCP/SLC10A1 Type of effect” value in series [7] was “only minor inhibition”. Also, the “OCT1/SLC22A1 Type of effect” value in series [8] is on record as “no significant inhibitory action”.
